Source: patent US8426408B2, “Pyrimidine inhibitors of kinases” (AbbVie Inc., priority 2009, dated 2013)

Assays:
Assay type in all cases: biochemical
Aurora B = biological target: T1, Aurora B (Homo sapiens, UniProt Q96GD4); assay: Aurora B enzyme inhibition (time-resolved fluorescence, histone H3 peptide); details: 1 mM ATP
T1 construct: Active Aurora B enzyme (recombinant residues 1-344)
Procedure, shortened: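 IC50s came from an exponential fit of inhibition against inhibitor concentration, with phosphorylation read as the 665/615 nm time-resolved fluorescence ratio after EDTA stop using Eu-anti-phospho-H3 and SA-APC. The 1 h reaction used Aurora B 1-344 plus GST-INCENP, biotin-histone H3 1-21 peptide and 1 mM ATP in pH 7.4 HEPES buffer.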

Aurora A = biological target: T2, Aurora A (Homo sapiens, UniProt O14965); assay: Aurora A enzyme inhibition (time-resolved fluorescence, STK substrate-2); details: 1 mM ATP
T2 sequence (O14965 1-403): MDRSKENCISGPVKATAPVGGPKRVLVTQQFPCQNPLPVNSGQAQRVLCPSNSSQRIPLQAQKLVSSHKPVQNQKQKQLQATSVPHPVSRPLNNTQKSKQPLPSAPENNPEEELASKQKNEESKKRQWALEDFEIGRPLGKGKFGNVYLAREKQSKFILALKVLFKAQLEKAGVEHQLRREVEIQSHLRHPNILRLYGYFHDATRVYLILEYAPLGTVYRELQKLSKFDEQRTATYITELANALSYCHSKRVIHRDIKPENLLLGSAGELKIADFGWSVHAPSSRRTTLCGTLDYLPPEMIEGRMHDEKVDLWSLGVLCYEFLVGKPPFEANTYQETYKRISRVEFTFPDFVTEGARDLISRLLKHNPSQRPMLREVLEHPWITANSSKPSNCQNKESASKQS
Procedure, shortened: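 Phosphorylation of biotinylated STK substrate-2 at 1 mM ATP, 1 h, Hepes buffer pH 7.4 (MgCl2, sodium orthovanadate, Triton X-100). After EDTA quench, 665/615 nm time-resolved fluorescence ratio read via europium anti-phospho antibody and SA-XL665; IC50 from exponential fit versus inhibitor concentration.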

KDR = KDR (Homo sapiens, UniProt P35968); assay: KDR HTRF in vitro kinase assay; set-up: purified enzyme (His6-KDR 789-1354, MW 63 kD); His6 (N); details: 1 mM ATP; read-out: KDR enzyme inhibition data (Ki)
Chain of KDR (P35968 789-1354): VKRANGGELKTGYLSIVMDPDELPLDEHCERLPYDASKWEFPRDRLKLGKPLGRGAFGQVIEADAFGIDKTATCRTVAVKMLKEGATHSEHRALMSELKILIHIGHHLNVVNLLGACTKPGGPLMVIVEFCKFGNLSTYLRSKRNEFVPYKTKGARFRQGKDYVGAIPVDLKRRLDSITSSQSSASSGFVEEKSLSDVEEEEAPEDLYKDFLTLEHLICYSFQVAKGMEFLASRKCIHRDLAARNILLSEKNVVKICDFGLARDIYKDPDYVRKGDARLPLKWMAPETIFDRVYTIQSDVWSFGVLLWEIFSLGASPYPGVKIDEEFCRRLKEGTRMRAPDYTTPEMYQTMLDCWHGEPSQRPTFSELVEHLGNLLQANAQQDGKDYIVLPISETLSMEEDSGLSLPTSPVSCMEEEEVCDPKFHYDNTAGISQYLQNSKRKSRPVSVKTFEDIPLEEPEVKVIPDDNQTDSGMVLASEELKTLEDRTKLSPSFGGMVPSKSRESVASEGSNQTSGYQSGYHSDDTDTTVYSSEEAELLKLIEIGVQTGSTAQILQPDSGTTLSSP
Procedure, shortened: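 His6-KDR 789-1354 (7 ng/well) with 0.5 μM biotinylated peptide substrate and 1 mM ATP in HEPES pH 7.1, MgCl2/MnCl2, 60 min at room temperature. EDTA-quenched, detected by streptavidin-XL-665 plus Eu-kryptate anti-phosphotyrosine HTRF after 3 h; IC50 from 620/665 nm ratio.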

Measured: Ki

T1 sequence (Q96GD4 whole entry, the tested form may be a part): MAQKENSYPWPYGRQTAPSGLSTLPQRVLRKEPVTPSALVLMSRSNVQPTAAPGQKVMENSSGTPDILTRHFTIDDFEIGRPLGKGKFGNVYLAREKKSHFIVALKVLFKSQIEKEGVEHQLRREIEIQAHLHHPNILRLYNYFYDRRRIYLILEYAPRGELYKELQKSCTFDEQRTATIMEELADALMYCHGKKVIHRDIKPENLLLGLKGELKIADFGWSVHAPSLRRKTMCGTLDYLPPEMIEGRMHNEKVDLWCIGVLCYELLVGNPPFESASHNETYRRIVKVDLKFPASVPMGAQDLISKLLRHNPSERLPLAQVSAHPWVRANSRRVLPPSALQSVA
T1 sequence (Q9NQS7 826-918 partner limits assumed): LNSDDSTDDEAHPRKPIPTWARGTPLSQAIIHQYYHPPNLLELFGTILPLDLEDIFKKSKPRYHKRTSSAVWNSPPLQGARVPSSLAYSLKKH

Cn1cc(Nc2ncc(C(F)(F)F)c(N[C@@H]3[C@H](C(=O)NCCO)[C@H]4C=C[C@@H]3C4)n2)cn1.Cn1cc(Nc2ncc(C(F)(F)F)c(N[C@H]3[C@@H](C(=O)NCCO)[C@@H]4C=C[C@H]3C4)n2)cn1 (mixture of isomers) [Example 67, (1S,2S,3R,4R)—N-(2-hydroxyethyl)-3-{[2-[(1-methyl-1H-pyrazol-4-yl)amino]-5-(trifluoromethyl)pyrimidin-4-yl]amino}bicyclo[2.2.1]hept-5-ene-2-carboxamide and (1R,2R,3S,4S)—N-(2-hydroxyethyl)-3-{[2-[(1-methyl-1H-pyrazol-4-yl)amino]-5-(trifluoromethyl)pyrimidin-4-yl]amino}bicyclo[2.2.1]hept-5-ene-2-carboxamide]
< 100 nM: all assays above

CCn1cc(Nc2ncc(C(F)(F)F)c(N[C@@H]3[C@H](C(=O)NCCO)[C@H]4C=C[C@@H]3C4)n2)cn1.CCn1cc(Nc2ncc(C(F)(F)F)c(N[C@H]3[C@@H](C(=O)NCCO)[C@@H]4C=C[C@H]3C4)n2)cn1 (mixture of isomers) [Example 68, (1S,2S,3R,4R)-3-{[2-[(1-ethyl-1H-pyrazol-4-yl)amino]-5-(trifluoromethyl)pyrimidin-4-yl]amino}-N-(2-hydroxyethyl)bicyclo[2.2.1]hept-5-ene-2-carboxamide and (1R,2R,3S,4S)-3-{[2-[(1-ethyl-1H-pyrazol-4-yl)amino]-5-(trifluoromethyl)pyrimidin-4-yl]amino}-N-(2-hydroxyethyl)bicyclo[2.2.1]hept-5-ene-2-carboxamide]
< 100 nM: all assays above

CCn1cc(Nc2ncc(C(F)(F)F)c(N[C@@H]3[C@H](C(=O)NC4CC4)[C@H]4C=C[C@@H]3C4)n2)cn1.CCn1cc(Nc2ncc(C(F)(F)F)c(N[C@H]3[C@@H](C(=O)NC4CC4)[C@@H]4C=C[C@H]3C4)n2)cn1 (mixture of isomers) [Example 71, (1S,2S,3R,4R)—N-cyclopropyl-3-{[2-[(1-ethyl-1H-pyrazol-4-yl)amino]-5-(trifluoromethyl)pyrimidin-4-yl]amino}bicyclo[2.2.1]hept-5-ene-2-carboxamide and (1R,2R,3S,4S)—N-cyclopropyl-3-{[2-[(1-ethyl-1H-pyrazol-4-yl)amino]-5-(trifluoromethyl)pyrimidin-4-yl]amino}bicyclo[2.2.1]hept-5-ene-2-carboxamide]
< 100 nM: all assays above

NC(=O)[C@@H]1[C@H](Nc2nc(Nc3cnn(CCN4CCCC4)c3)ncc2Cl)[C@H]2C=C[C@@H]1C2 (racemic) [Example 34, (1S,2S,3R,4R)-3-[(5-chloro-2-{[1-(2-pyrrolidin-1-ylethyl)-1H-pyrazol-4-yl]amino}pyrimidin-4-yl)amino]bicyclo[2.2.1]hept-5-ene-2-carboxamide and (1R,2R,3S,4S)-3-[(5-chloro-2-{[1-(2-pyrrolidin-1-ylethyl)-1H-pyrazol-4-yl]amino}pyrimidin-4-yl)amino]bicyclo[2.2.1]hept-5-ene-2-carboxamide]
< 100 nM: all assays above

CCN(CC)CCn1cc(Nc2ncc(Cl)c(N[C@H]3[C@@H](C(N)=O)[C@@H]4C=C[C@H]3C4)n2)cn1 (racemic) [Example 35, (1S,2S,3R,4R)-3-{[5-chloro-2-({1-[2-(diethylamino)ethyl]-1H-pyrazol-4-yl}amino)pyrimidin-4-yl]amino}bicyclo[2.2.1]hept-5-ene-2-carboxamide and (1R,2R,3S,4S)-3-{[5-chloro-2-({1-[2-(diethylamino)ethyl]-1H-pyrazol-4-yl}amino)pyrimidin-4-yl]amino}bicyclo[2.2.1]hept-5-ene-2-carboxamide]
< 100 nM: all assays above

NC(=O)[C@@H]1[C@H](Nc2nc(Nc3cnn(CCN4CCCC4)c3)ncc2Br)[C@H]2C=C[C@@H]1C2 (racemic) [Example 44, (1S,2S,3R,4R)-3-[(5-bromo-2-{[1-(2-pyrrolidin-1-ylethyl)-1H-pyrazol-4-yl]amino}pyrimidin-4-yl)amino]bicyclo[2.2.1]hept-5-ene-2-carboxamide and (1R,2R,3S,4S)-3-[(5-bromo-2-{[1-(2-pyrrolidin-1-ylethyl)-1H-pyrazol-4-yl]amino}pyrimidin-4-yl)amino]bicyclo[2.2.1]hept-5-ene-2-carboxamide]
< 100 nM: all assays above

CNC(=O)[C@@H]1[C@H](Nc2nc(Nc3cnn(C)c3)ncc2Cl)[C@H]2C=C[C@@H]1C2 (racemic) [Example 50, (1S,2S,3R,4R)-3-({5-chloro-2-[(1-methyl-1H-pyrazol-4-yl)amino]pyrimidin-4-yl}amino)-N-methylbicyclo[2.2.1]hept-5-ene-2-carboxamide and (1R,2R,3S,4S)-3-({5-chloro-2-[(1-methyl-1H-pyrazol-4-yl)amino]pyrimidin-4-yl}amino)-N-methylbicyclo[2.2.1]hept-5-ene-2-carboxamide]
< 100 nM: all assays above

CNC(=O)Cn1cc(Nc2ncc(Cl)c(NC3C4CCC(C4)C3C(N)=O)n2)cn1 (racemic) [Example 61, (1R,2S,3R,4S)-3-{[5-chloro-2-({1-[2-(methylamino)-2-oxoethyl]-1H-pyrazol-4-yl}amino)pyrimidin-4-yl]amino}bicyclo[2.2.1]heptane-2-carboxamide and (1S,2R,3S,4R)-3-{[5-chloro-2-({1-[2-(methylamino)-2-oxoethyl]-1H-pyrazol-4-yl}amino)pyrimidin-4-yl]amino}bicyclo[2.2.1]heptane-2-carboxamide]
< 100 nM: all assays above

Cn1cc(Nc2ncc(Cl)c(N[C@H]3[C@@H](C(N)=O)[C@@H]4C=C[C@H]3C4)n2)cn1 [Example 41, (1S,2S,3R,4R)-3-({5-chloro-2-[(1-methyl-1H-pyrazol-4-yl)amino]pyrimidin-4-yl}amino)bicyclo[2.2.1]hept-5-ene-2-carboxamide]
< 100 nM: all assays above

CCn1cc(Nc2ncc(Cl)c(N[C@H]3[C@@H](C(N)=O)[C@@H]4C=C[C@H]3C4)n2)cn1 [Example 42, (1S,2S,3R,4R)-3-({5-chloro-2-[(1-ethyl-1H-pyrazol-4-yl)amino]pyrimidin-4-yl}amino)bicyclo[2.2.1]hept-5-ene-2-carboxamide]
< 100 nM: all assays above

CCn1cc(Nc2ncc(C(F)(F)F)c(N[C@H]3[C@@H](C(N)=O)[C@@H]4C=C[C@H]3C4)n2)cn1 [Example 62, (1S,2S,3R,4R)-3-{[2-[(1-ethyl-1H-pyrazol-4-yl)amino]-5-(trifluoromethyl)pyrimidin-4-yl]amino}bicyclo[2.2.1]hept-5-ene-2-carboxamide]
< 100 nM: all assays above

NC(=O)[C@@H]1[C@H](Nc2nc(Nc3cnn(CCO)c3)ncc2C(F)(F)F)[C@H]2C=C[C@@H]1C2 [Example 63, (1S,2S,3R,4R)-3-{[2-{[1-(2-hydroxyethyl)-1H-pyrazol-4-yl]amino}-5-(trifluoromethyl)pyrimidin-4-yl]amino}bicyclo[2.2.1]hept-5-ene-2-carboxamide]
< 100 nM: all assays above

NC(=O)[C@@H]1[C@H](Nc2nc(Nc3cnn(CC(F)(F)F)c3)ncc2C(F)(F)F)[C@H]2C=C[C@@H]1C2 [Example 64, (1S,2S,3R,4R)-3-{[2-{[1-(2,2,2-trifluoroethyl)-1H-pyrazol-4-yl]amino}-5-(trifluoromethyl)pyrimidin-4-yl]amino}bicyclo[2.2.1]hept-5-ene-2-carboxamide]
< 100 nM: all assays above

NC(=O)[C@@H]1[C@H](Nc2nc(Nc3cnn(CCO)c3)ncc2Cl)[C@H]2C=C[C@@H]1C2 [Example 65, (1S,2S,3R,4R)-3-[(5-chloro-2-{[1-(2-hydroxyethyl)-1H-pyrazol-4-yl]amino}pyrimidin-4-yl)amino]bicyclo[2.2.1]hept-5-ene-2-carboxamide]
< 100 nM: all assays above

NC(=O)[C@@H]1[C@H](Nc2nc(Nc3cnn(CC(F)(F)F)c3)ncc2Cl)[C@H]2C=C[C@@H]1C2 [Example 66, (1S,2S,3R,4R)-3-[(5-chloro-2-{[1-(2,2,2-trifluoroethyl)-1H-pyrazol-4-yl]amino}pyrimidin-4-yl)amino]bicyclo[2.2.1]hept-5-ene-2-carboxamide]
< 100 nM: all assays above
